{
  "source": "patent US5504116A",
  "about": "(Research Foundation of State University of New York, priority 1994, dated 1996)",
  "key": {"[1]": {"biological_target": "T1, voltage-gated calcium channel (ICa) of uterine myocytes (Rattus norvegicus, UniProt P22002)", "T1 construct": "Individual myocytes were freshly isolated from 14 to 21-day pregnant uteri; endogenous in cells; host or cells: freshly dissociated longitudinal myometrial myocytes of 14 to 21-day pregnant Sprague-Dawley rats", "T1 sequence (P22002 whole entry)": "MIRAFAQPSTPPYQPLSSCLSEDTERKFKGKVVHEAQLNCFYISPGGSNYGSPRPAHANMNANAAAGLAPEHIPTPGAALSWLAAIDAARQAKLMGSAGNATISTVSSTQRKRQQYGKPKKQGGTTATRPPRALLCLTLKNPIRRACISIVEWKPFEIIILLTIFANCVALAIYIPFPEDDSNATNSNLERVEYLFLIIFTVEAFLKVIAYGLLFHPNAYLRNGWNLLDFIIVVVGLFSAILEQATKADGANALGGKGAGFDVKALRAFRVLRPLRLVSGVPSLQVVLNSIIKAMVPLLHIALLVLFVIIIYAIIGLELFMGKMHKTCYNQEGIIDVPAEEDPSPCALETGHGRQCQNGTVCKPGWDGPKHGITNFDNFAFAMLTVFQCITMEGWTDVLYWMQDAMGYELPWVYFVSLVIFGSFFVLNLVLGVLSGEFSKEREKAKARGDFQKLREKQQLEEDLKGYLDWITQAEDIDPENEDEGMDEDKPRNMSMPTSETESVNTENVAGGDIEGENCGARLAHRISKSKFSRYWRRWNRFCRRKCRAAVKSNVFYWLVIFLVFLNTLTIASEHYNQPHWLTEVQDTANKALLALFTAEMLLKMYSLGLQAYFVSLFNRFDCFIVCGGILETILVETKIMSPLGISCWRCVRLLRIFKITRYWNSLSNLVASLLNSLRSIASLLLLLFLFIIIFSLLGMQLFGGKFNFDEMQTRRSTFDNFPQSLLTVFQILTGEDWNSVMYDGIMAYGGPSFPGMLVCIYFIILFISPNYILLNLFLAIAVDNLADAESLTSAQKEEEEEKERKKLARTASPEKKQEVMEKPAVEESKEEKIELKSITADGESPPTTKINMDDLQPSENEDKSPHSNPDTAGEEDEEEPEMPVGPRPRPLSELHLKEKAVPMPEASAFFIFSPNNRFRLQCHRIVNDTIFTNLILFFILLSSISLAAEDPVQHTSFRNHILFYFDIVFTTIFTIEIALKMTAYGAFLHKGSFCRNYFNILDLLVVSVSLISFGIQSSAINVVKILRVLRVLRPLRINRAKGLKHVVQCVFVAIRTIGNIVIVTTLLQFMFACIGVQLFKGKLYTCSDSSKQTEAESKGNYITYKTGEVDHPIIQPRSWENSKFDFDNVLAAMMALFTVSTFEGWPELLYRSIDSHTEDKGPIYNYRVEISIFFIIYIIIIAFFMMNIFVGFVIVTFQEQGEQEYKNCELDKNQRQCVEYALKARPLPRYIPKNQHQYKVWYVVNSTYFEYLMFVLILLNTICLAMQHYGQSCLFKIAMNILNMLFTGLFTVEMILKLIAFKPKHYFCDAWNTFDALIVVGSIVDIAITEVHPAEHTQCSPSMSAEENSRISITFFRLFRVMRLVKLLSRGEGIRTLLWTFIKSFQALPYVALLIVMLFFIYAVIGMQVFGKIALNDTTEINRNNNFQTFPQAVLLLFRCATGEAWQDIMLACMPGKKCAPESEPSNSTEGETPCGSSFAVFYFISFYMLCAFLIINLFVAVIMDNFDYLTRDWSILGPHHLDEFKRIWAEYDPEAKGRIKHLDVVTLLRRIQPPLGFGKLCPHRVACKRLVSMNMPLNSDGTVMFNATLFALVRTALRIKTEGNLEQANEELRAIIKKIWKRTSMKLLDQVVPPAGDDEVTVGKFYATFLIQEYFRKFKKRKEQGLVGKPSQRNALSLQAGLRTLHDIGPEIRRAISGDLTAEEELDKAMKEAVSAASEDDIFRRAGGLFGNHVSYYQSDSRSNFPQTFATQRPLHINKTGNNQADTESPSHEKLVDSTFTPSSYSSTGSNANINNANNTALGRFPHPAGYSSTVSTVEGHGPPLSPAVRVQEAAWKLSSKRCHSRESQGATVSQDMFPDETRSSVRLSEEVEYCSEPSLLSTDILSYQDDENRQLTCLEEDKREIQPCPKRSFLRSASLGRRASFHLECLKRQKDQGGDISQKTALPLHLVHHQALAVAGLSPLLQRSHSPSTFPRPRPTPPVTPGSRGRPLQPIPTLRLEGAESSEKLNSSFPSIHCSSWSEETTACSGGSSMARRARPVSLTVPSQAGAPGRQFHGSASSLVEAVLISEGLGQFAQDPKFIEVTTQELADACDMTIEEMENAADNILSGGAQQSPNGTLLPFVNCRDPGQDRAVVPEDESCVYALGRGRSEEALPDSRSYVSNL", "T1 sequence (P54290 25-944 partner limits assumed)": "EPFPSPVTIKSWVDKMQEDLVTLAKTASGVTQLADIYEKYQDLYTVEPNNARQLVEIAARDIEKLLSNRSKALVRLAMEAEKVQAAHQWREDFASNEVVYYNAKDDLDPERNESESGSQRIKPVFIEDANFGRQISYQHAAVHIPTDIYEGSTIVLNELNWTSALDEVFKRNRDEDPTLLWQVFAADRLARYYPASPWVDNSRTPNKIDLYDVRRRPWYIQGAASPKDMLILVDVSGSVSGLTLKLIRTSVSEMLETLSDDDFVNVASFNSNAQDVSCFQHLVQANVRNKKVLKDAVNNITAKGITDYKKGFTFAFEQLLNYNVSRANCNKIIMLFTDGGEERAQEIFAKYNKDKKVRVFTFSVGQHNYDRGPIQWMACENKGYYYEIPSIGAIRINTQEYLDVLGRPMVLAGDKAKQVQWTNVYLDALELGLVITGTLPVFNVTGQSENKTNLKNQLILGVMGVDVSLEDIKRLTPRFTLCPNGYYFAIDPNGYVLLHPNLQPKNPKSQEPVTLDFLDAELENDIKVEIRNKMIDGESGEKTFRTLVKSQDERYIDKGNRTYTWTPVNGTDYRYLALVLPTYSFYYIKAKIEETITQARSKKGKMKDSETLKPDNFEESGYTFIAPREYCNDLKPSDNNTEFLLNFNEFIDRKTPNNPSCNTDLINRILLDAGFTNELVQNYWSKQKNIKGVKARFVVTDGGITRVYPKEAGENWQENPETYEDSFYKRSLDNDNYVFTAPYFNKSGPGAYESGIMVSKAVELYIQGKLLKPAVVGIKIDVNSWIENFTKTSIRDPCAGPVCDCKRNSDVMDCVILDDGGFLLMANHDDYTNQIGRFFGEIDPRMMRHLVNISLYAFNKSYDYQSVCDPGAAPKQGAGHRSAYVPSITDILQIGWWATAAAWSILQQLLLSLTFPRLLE", "T1 sequence (P54290 945-1091 partner limits assumed)": "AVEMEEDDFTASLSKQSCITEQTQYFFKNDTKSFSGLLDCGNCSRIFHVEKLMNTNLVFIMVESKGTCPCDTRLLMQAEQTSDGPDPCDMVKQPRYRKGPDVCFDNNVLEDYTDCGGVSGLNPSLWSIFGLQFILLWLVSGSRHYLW", "settings": "2 μM nisoldipine; cited from earlier work"}, "preterm labor": {"test_system": "preterm labor", "settings": "cited from earlier work"}, "[2]": {"test_system": "K+ channels (outward potassium currents) of uterine myocytes", "test": "whole-cell patch clamp, outward potassium currents of late-pregnant rat uterine myocytes", "format": "cell-based"}, "fetuses and newborn rats": {"test_system": "fetuses and newborn rats", "settings": "rat, in vivo", "text": "To avoid possible post-term complications, it was sacrificed."}, "pregnant rats": {"test_system": "pregnant rats", "test": "effect on the duration of pregnancy in rats (intramuscular injections)", "format": "in vivo, rat", "settings": "for term (duration of gestation): control 22.33±0.16 days, p <0.01"}, "[3]": {"biological_target": "T1, voltage-gated calcium channel (ICa) of uterine myocytes", "test": "whole-cell patch clamp, inward calcium current (ICa) of freshly dissociated pregnant rat uterine myocytes", "format": "cell-based", "excerpt": "Holding potential, -80 mV; depolarized by 35 ms steps from -40 mV in 10 mV increments to 30 mV. […] Traces shown represent inward currents in response to applied voltage commands, outward K^+ currents having been blocked by the use of Cs^+ -filled electrode. […] (E) Current-voltage (I--V) relations of INa in panels (A--D). Symbols correspond to those under current traces. (F) I--V relations of ICa.\nHollow symbols for I'Ca /ICa in same myocytes used for I'Na /INa values. […] P=I'Na /INa.\nAll experiments in this study were performed under institutional guidelines for the care and use of laboratory animals (approval #92-055). Rats (Sprague-Dawley) were mated individually in the inventors' laboratory, and the duration of gestation was timed from the morning of the first discovery of cervical plugs. […] Individual myocytes were freshly isolated from 14 to 21-day pregnant uteri. Details of the methods of isolating the myocytes in a near-physiological condition, and associated patch-clamping can be found in other publications^7,15. Briefly, strips of isolated longitudinal myometrium were incubated in collagenase, and then subjected to mild mechanical disruption, until individual myocytes in desired amounts were obtained. For the work described herein, such single freshly dissociated myocytes were studied in the whole-cell configuration of patch-clamping^9.\nThe bath solution in which the individual myocytes were studied contained (in mM): NaCl, 135; KCl, 5.4; MgCl2, 1; CaCl2, 3; HEPES, 10; and glucose 5. […] The pipette solution contained (in mM): CsCl, 120; EGTA, 1; Na2 ATP, 2; HEPES, 10; K-pyruvate, 5; K-oxaloacetate, 5; and K-succinate, 5. All solutions were adjusted to pH 7.3; all experiments were done at room temperature of ca. 22° C. In the whole-cell mode of recording, rupture of the cell membrane allows access of the pipette solution to the cell interior. The reason for using CsCl rather than KCl is that the Cs^+ effectively blocks outward K^+ currents, and allows the inward currents to be isolated for study. […] The basic properties of the voltage-gated sodium and calcium channels are described in detail in Yoshino et al^7.\nThe inward currents have been isolated by using a pipette solution containing 120 mM Cs^+."}, "[4]": {"settings": "dosages used in continuous epidural anesthesia for labor; cited from earlier work"}},
  "note": "Entries after “also recorded” stand apart in the source; their conditions may differ.",
  "data": [
    {"compound": "COC(=O)C1=C(C)NC(C)=C(C(=O)OCC(C)C)C1c1ccccc1[N+](=O)[O-]", "note": "(stereo not shown) [nisoldipine]", "values": [
      {"measurement": "block of Ca2+ current", "setting": "[1]", "value": "blocked"}
    ]},
    {"compound": "CC(NCCc1ccc(O)cc1)C(O)c1ccc(O)cc1", "note": "(stereo not shown) [ritodrine]", "values": [
      {"measurement": "duration of effectiveness in preterm labor", "setting": "preterm labor", "value": "effective for only a few days"},
      {"measurement": "effect on pregnancy outcome", "setting": "preterm labor", "value": "does not affect the pregnancy outcome"},
      {"measurement": "side-effects", "setting": "preterm labor", "value": "can produce cardiovascular side-effects in some recipients"}
    ]},
    {"compound": "CCN(CC)CC(=O)Nc1c(C)cccc1C", "note": "[lidocaine]", "values": [
      {"measurement": "effects on myometrial K+ or Ca2+ channels at concentrations blocking sodium channels", "setting": "[2]; K+ channels, uterine myocytes", "value": "no effects"},
      {"measurement": "effect on coexisting potassium channels, summary in words", "setting": "[2]; summary of the examples", "value": "very little effect"},
      {"measurement": "effect on outward K+ current", "setting": "[2]; up to 0.5 mM lidocaine, 5 min, late-pregnant uteri (FIG. 1)", "value": "insignificant effects; also recorded: rather minor"},
      {"measurement": "motor activities of fetuses at birth or newborn several hours after birth", "setting": "fetuses and newborn rats", "value": "no discernable differences"},
      {"measurement": "condition of fetuses at autopsy", "setting": "fetuses and newborn rats; 6 mg/kg", "value": "healthy and indistinguishable from those of control newborns, except for their larger sizes"},
      {"measurement": "day of delivery", "setting": "pregnant rats; 2 mg/kg i.m. twice daily, two rats, both", "value": "delivered on the 23rd day"},
      {"measurement": "duration of pregnancy, single rat", "setting": "pregnant rats; 6 mg/kg i.m. twice daily, one rat, sacrificed", "value": "continued into the 26th day"},
      {"measurement": "term (duration of gestation)", "setting": "pregnant rats; 2, 4 or 6 mg/kg i.m. twice daily from day-20, 8 rats", "value": "23.63 ± 0.39", "unit": "days"},
      {"measurement": "term (duration of gestation)", "setting": "pregnant rats; 4 or 6 mg/kg i.m. twice daily from day-20, 6 rats", "value": "23.83 ± 0.40", "unit": "days"},
      {"measurement": "difference in duration of gestation versus control", "setting": "pregnant rats; i.m. lidocaine, 22-day gestation", "value": 1.5, "unit": "days"},
      {"measurement": "lengthening of the term / prolongation of gestation", "setting": "pregnant rats; i.m. lidocaine, pregnant rats", "value": 7, "unit": "%"},
      {"measurement": "ICa, effect in words", "setting": "[3]; 0.02 mM lidocaine, 5 min (FIG. 3A)", "value": "no detectable difference"},
      {"measurement": "ICa, effect in words", "setting": "[3]; 0.1 mM and 0.2 mM lidocaine, 5 min (FIG. 3B, C)", "value": "slight reductions of the tail currents"},
      {"measurement": "Ca2+ currents, effect in words", "setting": "[3]; 0.5 mM lidocaine (FIG. 2D)", "value": "reduced slightly"},
      {"measurement": "ICa and tail-current, effect in words", "setting": "[3]; 1 mM lidocaine, 3 min (FIG. 2B)", "value": "only slightly reduced"},
      {"measurement": "remaining activity at 1000 µM", "setting": "[3]; 0.05 h, read-out: ICa relative to control (pre-lidocaine)", "value": 93, "unit": "%"},
      {"measurement": "remaining activity at 500 µM", "setting": "[3]; 0.05 h, read-out: tail ICa remaining relative to recovery state (C)", "value": 78, "unit": "%"},
      {"measurement": "effects on myometrial K+ or Ca2+ channels at concentrations blocking sodium channels", "setting": "[3]; Ca2+ channels, uterine myocytes", "value": "no effects"},
      {"measurement": "effect on ICa, in words", "setting": "[3]; concentrations of lidocaine up to 0.5 mM (FIG. 4)", "value": "very little effect"},
      {"measurement": "effect on coexisting voltage-gated calcium channels, summary in words", "setting": "[3]; summary of the examples", "value": "very little effect"},
      {"measurement": "serious side-effects on either the mother or the fetus", "setting": "[4]", "value": "absence of serious side-effects"}
    ]}
  ]
}
